Experimental data reported in patent US10301304B2, “Selective inhibitor of phosphatidylinositol 3-kinase-gamma” (VERTEX PHARMACEUTICALS INCORPORATED, priority 2013, dated 2019).
Values belong to the molecule of their own block, whether it stands above or below them.

Assays:
[1] = Intravenous bolus pharmacokinetics; assay type: in vivo, Rat; conditions: rat, plasma, Intravenous bolus, 0.5 mg/kg nominal dose; for AUC: iv, 0.5 mg/kg, read-out: Rat IV AUC; for clearance: read-out: Rat IV CL
Excerpt: Following intravenous administration of a single bolus dose, Compound 1 had low systemic clearance and a long half-life in all species tested. […] The volume of distribution was greater than the total body water, indicating distribution of Compound 1 to tissues.

[2] = Oral pharmacokinetics / bioavailability; assay type: in vivo, Rat; conditions: rat, in vivo, Oral gavage, 3 mg/kg nominal dose, vehicle 0.2%MC/1%SLS; for AUC: read-out: Rat PO AUC; for Cmax: read-out: Rat PO Cmax
Excerpt: The bioavailability in monkey (greater than 100%) may be explained by the tenfold difference between the IV and oral doses. Compound 1 was rapidly absorbed in all species, with maximum systemic concentration observed within approximately one to three hours of dosing.

[3] = test system: collagen-induced arthritis (CIA); assay: therapeutic mouse collagen-induced arthritis (CIA) model; assay type: in vivo; parameters: Histopathology Summed Score, Knees / Therapeutic Paw Score AUC / Histopathology Summed Score, Six Joints / Histopathology Summed Score, Paws: scale not given here; conditions: Fostamatinib 30 mg/kg BID
Protocol: Compound 1 was tested in the therapeutic mouse collagen-induced arthritis (CIA) model at 2.5 mg/kg BID (5 mg/kg/day), 5 mg/kg BID (10 mg/kg/day) or 10 mg/kg BID (20 mg/kg/day). Fostamatinib, a Syk small molecule inhibitor used as a reference standard, was dosed orally at 30 mg/kg BID (60 mg/kg/day). Compounds were dosed for 10 days in a 12/12-hour BID dosing regimen until the end of the study. Compound 1 was formulated in 0.2% MC, 1% SLS. Dosing volume was 10 mL/kg. Terminal plasma samples were collected at 2, 4 and 12 hours post last dose. All four paws and both knees were collected and processed for histopathology.

[4] = test system: CYP1A2; assay: CYP1A2 Induction in Human Hepatocytes; assay type: in vitro ADME; conditions: 50 μM Omeprazole
Protocol: CYP activity was determined by monitoring metabolite formation of specific CYP probe substrates (phenacetin for CYP1A2 and testosterone for CYP3A4) using LC-MS/MS. CYP messenger ribonucleic acid (mRNA) was analyzed by RT-PCR to confirm CYP induction potential.

Structure (SMILES): Cc1cc(-c2cncc(OCC(F)(F)F)c2)nc2c1C(=O)N(c1cnn(CC(F)F)c1)C2(C)C [D, reference compound]
AUC [1]: 1200 ng·h/mL
clearance [1]: 7 mL/min/kg
AUC [2]: 9000 ng·h/mL
Cmax [2]: 500 ng/mL

Structure (SMILES): COc1cc(Nc2ncc(F)c(Nc3ccc4c(n3)N(COP(=O)(O)O)C(=O)C(C)(C)O4)n2)cc(OC)c1OC [Fostamatinib, reference compound]
clinical arthritis scores, therapeutic paws (FIG. 2), significantly reduced [3]: not
reduction of arthritis scores AUC, prophylactic paws only [3]: 32%
reduction of clinical arthritis scores AUC vs vehicle, all paws [3]: 25%
All Paw Score AUC ([3]; 10 days): *23.61
Histopathology Summed Score, Knees ([3]; 10 days): 8.90
Histopathology Summed Score, Paws ([3]; 10 days): 10.25
Histopathology Summed Score, Six Joints ([3]; 10 days): 9.80
Prophylactic Paw Score AUC ([3]; 10 days): *48.30
Therapeutic Paw Score AUC ([3]; 10 days): 46.15
Arthritis scores measured daily, all paws (FIG. 1) ([3]; *d2-11, vs vehicle): significantly reduced toward normal
clinical arthritis scores, prophylactic paws (FIG. 3) ([3]; *d5-9): significantly reduced

Structure (SMILES): COc1ccc2[nH]c([S+]([O-])Cc3ncc(C)c(OC)c3C)nc2c1 (stereo not drawn) [Omeprazole, reference compound]
CYP1A2 mRNA message ([4]; lot 8123): 118.0 fold change
Phenacetin O-Dealkylation ([4]; lot 8123): 25.7 fold change
CYP1A2 mRNA message ([4]; lot LMP): 71.5 fold change
Phenacetin O-Dealkylation ([4]; lot LMP): 36.3 fold change
CYP1A2 mRNA message ([4]; lot YOW): 83.6 fold change
Phenacetin O-Dealkylation ([4]; lot YOW): 17.9 fold change

More lines, now with the values ahead:

AUC [1]: 330 ng·h/mL
clearance [1]: 22 mL/min/kg
AUC [2]: 600 ng·h/mL
Cmax [2]: 120 ng/mL
Structure (SMILES): CCOc1cncc(-c2cc(C)c3c(n2)C(C)(C)N(c2cnn(CC(F)F)c2)C3=O)c1 [B, reference compound]

AUC [1]: 590 ng·h/mL
clearance [1]: 11 mL/min/kg
AUC [2]: 3000 ng·h/mL
Cmax [2]: 200 ng/mL
Structure (SMILES): Cc1cc(-c2cncc(OCC(F)F)c2)nc2c1C(=O)N(c1cnn(CC(F)F)c1)C2(C)C [C, reference compound]

AUC [1]: 220 ng·h/mL
clearance [1]: 22 mL/min/kg
AUC [2]: 300 ng·h/mL
Cmax [2]: 60 ng/mL
Structure (SMILES): COc1cncc(-c2cc(C)c3c(n2)C(C)(C)N(c2cnn(CC(F)F)c2)C3=O)c1 [Compound A, reference compound]
